Assay results reported in patent publication US20240374681A1, “Formulation for Co-Administration of Q-GRFT and Tenofovir” (priority 2021, published 2024).

What was measured:
[1] = system: Caco-2 monolayer cell model; test: Caco-2 monolayer permeability of paracellular marker [^14C]-Mannitol
Excerpt: Caco-2 Monolayer Cell Model Permeability Study Procedure: The procedure was adapted from a previously reported method to build a Caco-2 monolayer cell model and perform the permeability studies. Cell passages 34 to 42 were used to build the model in different batches. For preparation, a total of 3×10^5 Caco-2 cells were dispensed on the apical side of each Transwell filter. The model would be ready after 21-29 days of culture. The model was validated with a paracellular marker, [^14C]-Mannitol. […] To study the permeability, the sample solution was gently dispensed on the apical side of the model and cultured at 37° C. for 2 hours. […] The apparent permeability coefficients (Papp) were calculated using Equation 1, below.
[formula] [formula] • Papp (cm/sec): the apparent permeability coefficient;
(ng/sec): the rate of drug transportation; A (cm^2): the surface area of the cell layers; C0 (ng/ml): The initial drug concentration in the donor side.

[2] = Q-GRFT content determination by HPLC (incl. stability study); format: physicochemical; settings: molar ratios 3, 6, 12 to Q-GRFT monomer, 40° C./75% RH for 3 months
Procedure: Stability Study Procedure: Individual enema bottles containing 125 ml of solution were stored under three conditions (4° C.; 25° C./60% RH; 40° C./75% RH) and monitored over time (24 months for 4° C. and 25° C./60% RH; 6 months for 40°° C./75% RH). At each time point (1, 2, 3, 6, 9, 12, 18, and 24 months), physicochemical characteristics were evaluated and compared against the critical quality assessments (CQAs) according to the following procedures.
Q-GRFT Content Determination by High-Performance Liquid Chromatography: The High-Performance Liquid Chromatography (HPLC) method for measuring Q-GRFT content was previously developed and reported elsewhere. The samples were diluted 2 times with Milli-Q water. The Q-GRFT content was detected by an HPLC system (Waters Corporation, Milford, MA) equipped with an auto-injector (model 717), a quaternary pump (model 600), and a photodiode array detector (model 2996)) with a C5 column (Jupiter 5 μm 300 Å, 250×4.6 mm) and a C5 pre-column (Security Guard Standard Widepore).
Lyophilization: For samples with cryoprotectants, sugar/sugar polyol powders were weighed and added in individual scintillation vials. The Q-GRFT stock solution was then added. The sample vials were mixed until the powder dissolved. Next, the vials containing sample solution (with or without the addition of cryoprotectants) were transferred to a −80° C. freezer to freeze overnight. Until lyophilization, the samples were tilted and placed in the beaker, attached to a pre-set lyophilizer (Labconco FreeZone Freeze Dry System, Kansas City, MO). The lyophilizing process was set to maintain the environment at −50° C. and 0.070 mBar. Sample vials were measured for their weights after lyophilizing for at least two days. Once the weights were stable, indicating no more water was removed, the lyophilized powder was taken out of the vials and ground with a mortar and pestle. The lyophilized powder would be packed in a tube at 4° C. (unless other conditions were indicated) until further characterizations.
Q-GRFT Content Determination by High-Performance Liquid Chromatography (HPLC): The HPLC method for measuring the Q-GRFT content was developed in-house and reported previously. The samples were diluted 2 times with Milli-Q water. The Q-GRFT content was detected by an HPLC system (Waters Corporation, Milford, MA) equipped with an auto-injector (model 717), a quaternary pump (model 600), and a photodiode array detector (model 2996)) with a C5 column (Jupiter 5 μm 300 Å, 250×4.6 mm) and a C5 pre-column (Security Guard Standard Widepore).

human colon tissue = test: Ex vivo human colon tissue permeability of Q-GRFT in Ussing chamber; settings: all time points, LLOQ of the HPLC method
Procedure: Permeability and Toxicity Assessment with the Ex Vivo Human Colon Tissue: Tissue specimens were collected from patients 18-75 years old. A section of each tissue was retained for histological evaluation with hematoxylin and eosin (H&E) staining assay. After removal of the excess stromal tissue, the epithelial tissue was placed between the donor and receptor compartments of the Ussing chamber apparatus with the epithelial side toward the donor compartment. This set-up was maintained at 37° C. throughout the experiment. Both donor and receptor compartments were filled with KRBG during system calibration. Then the KRBG buffer from the donor sides was replaced with sample solutions. 50 μL was removed from the donor compartment at the beginning and the end of the experiments. At predetermined time points (Time 0, 15, 30, 45, 60, 75, 90, 120 minutes), 200 μL was removed from the receptor chamber and the same volume of fresh KRBG was added for replacement. These samples were held at 4° C. until analyzed by UPLC (for TFV) or HPLC (for Q-GRFT). The Papp values were calculated using Equation 1 as described above. All tissues, including pre-treatment and post-treatment tissues from all groups, were processed for paraffin sectioning. The tissue sections were embedded into paraffin blocks using the Leica EG 1160 embedding station. […]

HIV-1 gp120CM = test: gp120 binding bioactivity by ELISA
Procedure: Bioactivity Determination using Enzyme-linked Immunosorbent Assay (ELISA): An ELISA was applied to evaluate the gp120 binding activity of select Q-GRFT samples. Nunc MaxiSorp 96-well plates were used for this experiment. The MaxiSorp surface is a hydrophilic/hydrophobic mix that binds to a wide range of biomolecules. In short, gp120 was bound to the wells of a 96-well plate overnight at 4° C. The HIV-1 gp120CM was purchased from Kentucky Bioprocessing (KBP; Part #C-1312). After overnight incubation, the solution of gp120 was removed, and a blocking solution (1× PBS-T [PBS with 0.05% Tween 20]) was applied for two hours at room temperature. After that, the wells were washed and incubated with various dilutions of Q-GRFT samples for one hour. Gp120 binding was detected by applying goat anti-Q-GRFT primary antibody (one-hour incubation) and HRP-labeled rabbit anti-goat secondary antibody (one-hour incubation), sequentially. […] Gp120 binding was measured at 450 nm.
Bioactivity Determination by Enzyme-linked Immunosorbent Assay (ELISA): An ELISA was adapted and applied to evaluate the gp120 binding activity of the Q-GRFT samples. […] Gp120 binding was detected by applying goat anti-Q-GRFT primary antibody (one-hour incubation) and HRP-labeled rabbit anti-goat secondary antibody (one-hour incubation), sequentially. […] Gp120 binding was measured at 450 nm with a plate reader.

[3] = pH measurement of enema formulations / reconstituted solutions (pH meter); format: physicochemical; settings: stock solution in 1× PBS
Excerpt: To investigate if the vehicle strength impacts the pH and osmolality of formulations, PBS-base was used directly (1× PBS) or diluted (50% PBS) with or without the addition of TFV and Q-GRFT. To study if the vehicle composition impacts the pH and osmolality of formulations, PBS-base and saline-base were used directly (1× PBS; 1× saline) with the addition of TFV and Q-GRFT. Three formulations (50% PBS, 1× PBS, 1× saline; all with the addition of TFV and Q-GRFT) were chosen to further evaluate the effects of pH adjusting agents on osmolality. For the final screening, both vehicles (PBS-base and saline-base) were diluted into three strengths, 30%, 35%, and 40% with the addition of TFV and Q-GRFT. pH and osmolality were measured as in-line checkpoints for screening and quality assurance.
Manufacturing Procedure: Stock buffer (10× PBS or Saline) was diluted with Milli-Q water to a solution with lower osmolality than desired (˜40 mOsm/kg lower). […] Finally, Q-GRFT stock solution (in 1× PBS) was measured and added to the solution to make the final product. […]
pH: The pH was determined using a pH meter (XL150 pH Benchtop Meters, Fisher Scientific). […]
pH: The pH was determined by a pH meter (XL150 pH Benchtop Meters, Thermo Fisher Scientific; Waltham, MA). […] The pH was recorded only after the value stayed stable.

[4] = system: Caco-2 monolayer cell model; settings: reported literature value; cited from earlier work
[5] = system: Caco-2 monolayer cell model; settings: 2-hour treatment, threshold 165 Ω*cm^2
Procedure: Caco-2 Monolayer Cell Model Toxicity Study Procedure: Passages 33 to 43 of the Caco-2 cell line were used in the studies. The Caco-2 cells were cultured in complete Dulbecco's modified Eagle's medium (DMEM) [500 ml of DMEM (Corning) containing 50 ml fetal bovine serum (FBS; Gibco Qualified One-Shot, Thermo Scientific) and 5 ml PEST (penicillin 10,000 U/ml-streptomycin, 10,000 ug/ml-glutamine 29.2 mg/ml solution (100×); Gibco, Fisher Scientific)] at 37° C. with 5% CO2 incubation. […] After overnight incubation, the samples were added to the wells and treated for 24 hours. […] A toxicity study utilizing the Caco-2 model was performed prior to permeability studies to examine the safety of the complete liquid formulations. Samples were applied on the apical side of the Transwell. After 2-hour treatments, the treated samples were discarded and washed off twice with HBSS. […] TEER values were also measured before and after the treatments as supplemental criteria for the toxicity study.

CCCCCCCCCCCCOS(=O)(=O)[O-].[Na+] [20% SDS (positive control)]
Paracellular marker [^14C]-Mannitol: Papp ([1]; Caco-2): 30 ± 1 ×10⁻⁶ cm/s

OC[C@@H](O)[C@@H](O[C@@H]1O[C@H](CO)[C@H](O)[C@H](O)[C@H]1O)[C@H](O)[C@@H](O)CO [lactitol]
Cryoprotecting effect on Q-GRFT content of lyophilized powder [2]: no protection

OC[C@H]1O[C@@](CO)(O[C@H]2O[C@H](CO)[C@@H](O)[C@H](O)[C@H]2O)[C@@H](O)[C@@H]1O [sucrose]
Cryoprotecting effect on Q-GRFT content of lyophilized powder [2]: concentration-dependent protection

OC[C@H]1O[C@H](O[C@H]2O[C@H](CO)[C@@H](O)[C@H](O)[C@H]2O)[C@H](O)[C@@H](O)[C@@H]1O [trehalose]
Cryoprotecting effect on Q-GRFT content of lyophilized powder [2]: concentration-independent protection

Q-GRFT: engineered form of griffithsin with increased stability against oxidation; stock solution in 1× PBS
Q-GRFT content from the receptor sides (human colon tissue): < 1 µg/mL
EC50 gp120 binding (ELISA) (HIV-1 gp120CM; after lyophilization and reconstitution, Example 2 (FIG. 18)): 7.02 ng/mL
EC50 gp120 binding (ELISA) (HIV-1 gp120CM; reference solution, Example 1 (FIG. 11)): 11.70 ng/mL
pH of Q-GRFT stock solution [3]: around 7.39

OC[C@@H](O)[C@@H](O[C@H]1O[C@H](CO)[C@@H](O)[C@H](O)[C@H]1O)[C@H](O)[C@@H](O)CO [maltitol]
Cryoprotecting effect on Q-GRFT content of lyophilized powder [2]: concentration-dependent protection

OCC(O)C(O)C(O)C(O)[14CH2]O (stereo not drawn) [[^14C]-Mannitol]
Papp of [^14C]-Mannitol, reported value [4]: 0.12 ×10⁻⁶ cm/s
Papp of [^14C]-Mannitol (model validation) ([1]; tested using this Caco-2 monolayer cell model): 0.33 ×10⁻⁶ cm/s

C=O [formaldehyde]
TEER value after treatment [5]: < 165 Ω*cm^2
